Data on eleven compounds can be found in publication PMC7073229, “Novel Quinoline Compounds Active in Cancer Cells through Coupled DNA Methyltransferase Inhibition and Degradation” (Cancers, 2020).

Series [1] addresses T1, C-terminal catalytic domain of human DNMT3A (hDNMT3A) (Homo sapiens, UniProt Q9Y6K1).
T1 construct: the C-terminal catalytic domain of human DNMT3A (hDNMT3A)
In words: DNMT3A restriction-based fluorescence assay. In kind it is biochemical. The note with it: mean of at least two independent experiments; read-out: Enzyme Inhibition (EC50 ± SD) hDNMT3A. The protocol: DNMT3A enzyme inhibition was adapted from the restriction-based fluorescence assay protocol described in Ceccaldi et al.. Briefly, a biotin-labelled oligonucleotide at the 5’ end is hybridized to his complementary strand labelled at the 3’ end with 6-carboxyfluorescein. The DNA duplex containing only one single CpG site overlapping with a restriction site of a methylation sensitive restriction enzyme is transferred in the wells coated with avidin. The methylation reaction is performed by adding human C-terminal DNMT3A at the final concentration of 4 ng/µL in a total volume of 50 µL in the presence of the inhibitors at various concentrations and the co-substrate SAM at the final concentration of 20 µM. The plate was incubated for 1 h at 37 °C, washed, and added with the methylation sensitive restriction enzyme HpyCH4IV, incubated for 1 h further at 37 °C, washed and the fluorescence measured with a PerkinElmer Envision Multilabel Plate Reader. The data are expressed as percentage of inhibition vs. log concentration (M). Data are normalized referring to the “restriction control” (wells coated with labelled duplex not treated nor exposed to DNMT3A, but only cleaved by HpyCH4IV) as the maximum of inhibition (100%) and to the “DMSO control” (wells coated with labelled duplex but treated just with 0.1% DMSO exposed to DNMT3A and then to HpyCH4IV) as the minimum of inhibition (0%; total methylation).

A further series has as its system U937 AML cells. The series can be described thus: Antiproliferative activity, MTT. In kind it is cell-based. The note with it: Homo sapiens, U-937, 48 h treatment, read-out: Antiproliferative Activity (IC50 ± SD) U937. Here is the method:
(§1) U937 histiocytic lymphoma, HL60 acute promyelocytic leukemia, H1299 lung adenocarcinoma, MCF7 breast carcinoma, HT1080 fibrosarcoma, M14 melanoma, HeLa epithelial cervix carcinoma and peripheral blood B lymphocyte AHH1 human cell lines were obtained from the Deutsche Sammlung für Mikroorganismen and Zellkulturen (DSZM, Braunschweig, Germany) and were maintained in RPMI 1640 medium contained 10% fetal bovine serum (FBS), 2 mM L-glutamine, and antibiotics in a humidified atmosphere with 5% CO2 at 37 °C. HCT116 (ATCC, VA, USA) cells were propagated in Dulbecco’s modified Eagle medium (DMEM) (Euroclone, Milan, Italy) with 10% fetal bovine serum (FBS; Euroclone, Milan, Italy), 2 mM L-glutamine (Euroclone, Milan, Italy), and antibiotics (100 U/mL penicillin, 100 µg/mL streptomycin) (Euroclone, Milan, Italy). The experiments were performed with early (3–20) cell passages. Cell lines were treated with compounds at the indicated concentrations in the exponential growth phase.
(§2) Then, increasing concentrations of different compounds (ranging from 0.01 to 100 μM) were added, and cell proliferation was evaluated by a MTT assay after 48 h. Cells exposed to DMSO were used as control. The effect of compounds was evaluated using the CellTiter-Glo luminescent cell viability assay (Promega, Madison, WI, USA) according to the manufacturer’s instructions. For HCT116, 5 × 10^4 cells/well were plated in 24-well plate and treated, in duplicate, with compounds at several concentrations for 24 and 48 h of induction. After treatments, MTT solution was added for 3 h at 0.5 mg/mL, the obtained crystals were dissolved in DMSO (Sigma-Aldrich, Milan, Italy), and the absorbance was read at a wavelength of 570 nm with reader TECAN M-200. All the experiments were performed in triplicate and repeated at least three times.
(§3) IC50 values of compounds against cellular viability were determined by using nonlinear regression fitting curves with GraphPad Prism 8. The t-test used for statistical analyses was performed with GraphPad Prism 8. All the tests were one-tailed and a p-value < 0.05 was considered statistically significant.

The subject of a further series is HL60 APL cells. The series can be described thus: Antiproliferative activity, MTT. In kind it is cell-based. The following applies: Homo sapiens, HL-60, 48 h treatment, read-out: Antiproliferative Activity (IC50 ± SD) HL60. Here is the method: as §1, §2, §3
Another series deals with F21T G-quadruplex DNA. In words: FRET melting assay, G-quadruplex DNA. In kind it is binding. Here is the method: (§4) Experimental procedure for Fluorescence Resonance Energy Transfer (FRET) melting assay Oligonucleotides labeled at 5’ with FAM (6-carboxyfluorescein) as donor fluorophore and TAMRA (6 - carboxytetramethylrhodamine) at 3’ as the acceptor fluorophore were purchased from STAB VIDA (Portugal). Each oligonucleotide was initial ly diluted to 100 µM in water (Molecular Biology Reagent, Sigma). Stock solutions of 20 µM and subsequent dilutions were made with FRET buffer (60 mM KCl, potassium cacodylate, pH 7.4). Tagged oligonucleotides at 0.4 µM were annealed by heating at 90 -95 °C for 10 min, followed by slow cooling to room temperature. St ock solutions of compounds (1 mM) were prepared in 10% DMSO. Subsequent dilutions were performed using FRET buffer. Annealed DNA (50 µL) and test compound solutions (50 µL) were distributed across 96-well RT-PCR plates (PCR-96-FLT-C, Axygen, Inc). Fluorescence readings (performed in a 7300 RT -PCR equipment from Applied Biosystems) were taken at intervals of 0.5 °C in the range 31 –95 °C, with the temperature being maintained for 30 seconds prior to each reading. Experiments were performed in triplicate. Fina l analysis of the data was carried out with GraphPad Prism v.5.0 (GraphPad Software Inc., La Jolla, CA, USA).
(§5) The advanced curve-fitting function in GraphPad Prism (nonlinear regression fit) was used for calculation of ΔTm values. Only results with fitting r2 values > 0.75 (std error < 0.25) were considered.
(§6) Table S2. Synthetic oligonucleotides used in FRET experiments.

A further series deals with KRAS21R G-quadruplex DNA. In words: FRET melting assay, G-quadruplex DNA. Format: binding. Here is the method: as §4, §5, §6
Another series relates to U937 cells. The series can be described thus: Sub-G1 peak, cell cycle flow cytometry. The following applies: U937, 1 µM, 24 and 48 h. Format: cell-based, human. Here is the method:
Cell cycle analysis was performed on 5 × 10^5 fixed cells resuspended in a RNase A (3 mg/mL) and propidium iodide (PI) solution (1 mg/mL). Samples were analyzed with a C6 Accuri BD (Becton Dickinson & Co., San Jose, CA, USA). The percentage of apoptosis was measured analyzing sub-G1 peaks. Apoptotic cell death was also evaluated by using annexin V–fluorescein isothiocyanate (FITC) apoptosis kit (BD Bioscience) and assayed according to the manufacturer’s instructions. Cells double-stained for both annexin V and PI were analyzed by flow cytometry. PI was used in conjunction with annexin V–FITC to distinguish cells in the earlier stages of apoptosis (annexin V-FITC positive, PI negative) from those in later stages of apoptosis or that were already dead (annexin V–FITC positive, PI positive). Percentage of cells positive for caspase-3 activation was evaluated by Active Caspase-3 Apoptosis Kit (BD biosciences, Milan, Italy) according to the manufacturer’s instructions.

The subject of series [2] is HeLa epithelial cervix carcinoma. In words: Antiproliferative activity, MTT. In kind it is cell-based. The note with it: Homo sapiens, 48 h treatment, read-out: Antiproliferative Activity (IC50 ± SD) HeLa. Here is the method:
as §1, §2, §3

In series [3] the test system is HCT116 human colorectal carcinoma. The series can be described thus: Antiproliferative activity, MTT. In kind it is cell-based. The note with it: HCT-116, 48 h treatment, read-out: Antiproliferative Activity (IC50 ± SD) HCT116. Here is the method: as §1, §2, §3
The test system of series [4] is HT1080 human fibrosarcoma. The series can be described thus: Antiproliferative activity, MTT. In kind it is cell-based. The note with it: HT-1080, 48 h treatment, read-out: Antiproliferative Activity (IC50 ± SD) HT1080. Here is the method: as §1, §2, §3
The subject of another series is M14 human melanoma. The series can be described thus: Antiproliferative activity, MTT. In kind it is cell-based. The following applies: 48 h treatment, read-out: Antiproliferative Activity (IC50 ± SD) M14. The protocol: as §1, §2, §3
Series [5] has as its system H1299 human non-small cell lung carcinoma. In words: Antiproliferative activity, MTT. In kind it is cell-based. The following applies: Homo sapiens, NCI-H1299, 48 h, 48 h treatment, read-out: Antiproliferative Activity (IC50 ± SD) H1299. The protocol: as §1, §2, §3

Molecules are shown by their SMILES. Structures can show the parent of a compound that is named as a salt.

T1 sequence (Q9Y6K1 634-912 limits assumed): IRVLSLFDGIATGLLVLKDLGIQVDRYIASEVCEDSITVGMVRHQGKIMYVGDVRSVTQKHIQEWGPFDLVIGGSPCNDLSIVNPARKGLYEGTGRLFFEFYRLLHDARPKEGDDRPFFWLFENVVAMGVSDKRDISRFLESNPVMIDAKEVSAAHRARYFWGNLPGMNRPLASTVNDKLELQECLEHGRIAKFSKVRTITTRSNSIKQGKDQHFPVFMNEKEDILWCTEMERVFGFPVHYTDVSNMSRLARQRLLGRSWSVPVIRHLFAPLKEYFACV

In turn, `Cc1cc(Nc2cccc(CNC(=O)c3cccc(Nc4ccnc5ccccc45)c3)c2)nc(N)n1` (as salt: hydrochloride) [Compound 1c] returned a melting point of 183 to 185 °C.
Compound `Cc1cc(Nc2cccc(NC(=O)c3cccc(CNc4ccnc5ccccc45)c3)c2)nc(N)n1` [Compound 1a] came in with a melting point of 153 to 155 °C. In series [1], the EC50 came out at 21 ± 3.1 µM. In addition, the IC50 in the series with U937 AML cells was found to be 1.4 ± 0.2 µM. In the series with HL60 APL cells, the 50% inhibitory concentration (IC50) was determined as 18.1 ± 2.4 µM.
The like results for `Cc1cc(Nc2cccc(NC(=O)Cc3cccc(Nc4ccnc5ccccc45)c3)c2)nc(N)n1` [Compound 1b] were, in that order, 163 to 165 °C, 19 ± 2 µM, 37 ± 5.9 µM and 40 ± 5 µM.
For `Cc1cc(NCc2cccc(NC(=O)c3cccc(Nc4ccnc5ccccc45)c3)c2)nc(N)n1` [Compound 1d] the same measures were 260 to 262 °C, 51 ± 10 µM, 67 ± 8.8 µM and 67 ± 7.4 µM.
In the case of `Cc1cc(Nc2cccc(C(=O)Nc3cccc(Nc4ccnc5ccccc45)c3)c2)nc(N)n1` [Compound 1e], the melting point is 227 to 229 °C. Further, the EC50 in [1] stood at 21 ± 4 µM. Further, the concentration for half-maximal inhibition (IC50) in the series on U937 AML cells is 4.8 ± 0.6 µM. In addition, the IC50 in the series with HL60 APL cells worked out at 9.9 ± 1.1 µM.
For `Cc1cc(Nc2cccc(NCc3cccc(Nc4ccnc5ccccc45)c3)c2)nc(N)n1` [Compound 1f] the same measures were 98 to 100 °C, 12 ± 3 µM, 4.4 ± 0.7 µM and 1.9 ± 0.1 µM.
`Cc1cc(Nc2ccc(NC(=O)c3cccc(Nc4cc(C)nc(N)n4)c3)cc2)nc(N)n1` [Compound 3a] gave a melting point of 218 to 220 °C. Further, the EC50 in [1] stood at 41 ± 10 µM. Also, the half-inhibitory concentration (IC50) in the series on U937 AML cells was 52.4 ± 7.6 µM. For the same compound, in the series on HL60 APL cells, the IC50 came out at 83 ± 10.2 µM.
For `Cc1cc(Nc2cccc(NC(=O)c3cccc(Nc4cc(C)nc(N)n4)c3)c2)nc(N)n1` [Compound 3b] the same measures were 105 to 107 °C, more than 100 µM, 123 ± 15 µM and 225 ± 28.5 µM.
For `Cc1cc(Nc2ccc(C(=O)Nc3cccc(Nc4cc(C)nc(N)n4)c3)cc2)nc(N)n1` [Compound 3c] the same measures were 292 to 294 °C, 13 ± 0.9 µM, 66 ± 9.2 µM and 125 ± 16.2 µM.
In the case of `O=C(Nc1cccc(NC(=O)c2cccc(Nc3ccnc4ccccc34)c2)c1)OCc1ccccc1` [Compound 4b], the “F21T ∆Tm” value with F21T G-quadruplex DNA (5 µM) is 3.8 ºC; in the series on F21T G-quadruplex DNA (10 µM), 1.5 ºC. Further, the figures for the “KRAS ∆Tm” value with KRAS21R G-quadruplex DNA (5 µM) and with KRAS21R G-quadruplex DNA (10 µM) were 2.8 ºC and 2.5 ºC, respectively. In addition, in the series with U937 cells, the “effect on sub-G1 peaks vs untreated cells” value is given as “remarkable increase”. Besides, in [1], the half-maximal effective concentration (EC50) is 13 ± 1.4 µM. The IC50 was 3.2 ± 0.6 µM with U937 AML cells; 65 ± 7.3 µM in series [2]; 20.5 ± 2.8 µM in series [3]; 13.1 ± 1.5 µM in series [4]; 15.3 ± 2 µM with M14 human melanoma; 1.9 ± 0.3 µM in the series with HL60 APL cells. In series [5], the IC50 was determined as 40 ± 4.8 µM.
In the case of `C[n+]1ccc(-c2c3nc(c(-c4cc[n+](C)cc4)c4ccc([nH]4)c(-c4cc[n+](C)cc4)c4ccc([nH]4)c(-c4cc[n+](C)cc4)c4nc2C=C4)C=C3)cc1` [Py4P, reference compound], the “F21T ∆Tm” value with F21T G-quadruplex DNA (positive control at 1 µM) is listed as 21.2 ºC. Moreover, the “KRAS ∆Tm” value in the series with KRAS21R G-quadruplex DNA (positive control at 1 µM) is on record as 18.8 ºC.
